Test results as given in ChEMBL document CHEMBL1201862, “PubChem BioAssay data set” (2004).
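Interpolation was linear, between the two tested concentrations surrounding the appropriate level; five concentrations were tested over 48 hours in 96-well plates. GI50 marks 50% less growth.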 The source made the active and inactive calls. Cut-off read from the data, not from the text of the source: active = GI50 up to about 1.1 µM and inactive = higher.

Tests used:
Experiment in all cases: NCI tumour cell line growth inhibition, 48 h
786-0 = tested on: 786-0
A498 = tested on: A498
A549 = tested on: A549
ACHN = tested on: ACHN
COLO 205 = tested on: COLO 205
DU-145 = tested on: DU-145
EKVX = tested on: EKVX
HOP-92 = tested on: HOP-92
Hs-578T = tested on: Hs-578T
M14 = tested on: M14
MDA-MB-231 = tested on: MDA-MB-231
OVCAR-4 = tested on: OVCAR-4
RXF 393 = tested on: RXF 393
SF-268 = tested on: SF-268
SNB-75 = tested on: SNB-75
SW-620 = tested on: SW-620
T47D = tested on: T47D
HL-60 = tested on: HL-60
NCI-H226 = tested on: NCI-H226

Measured: GI50

Oc1ccnc(SCc2ccc(Cl)cc2)n1
inactive: 786-0 > 100 µM | A498 > 100 µM | A549 > 100 µM | ACHN > 100 µM | COLO 205 > 100 µM | DU-145 > 100 µM | EKVX > 100 µM | HOP-92 > 100 µM | Hs-578T > 100 µM | M14 > 100 µM | MDA-MB-231 > 100 µM | OVCAR-4 > 100 µM | RXF 393 > 100 µM | SF-268 > 100 µM | SNB-75 > 100 µM | SW-620 > 100 µM | T47D > 100 µM

COc1ccc2nc(N/N=C/c3ccc(C)s3)cc(C)c2c1
inactive: 786-0 13 µM | A549 > 100 µM | ACHN 17.7 µM | COLO 205 19.4 µM | DU-145 17.7 µM | EKVX 26.4 µM | HL-60 27.2 µM | HOP-92 13.9 µM | Hs-578T 22.1 µM | M14 16.6 µM | MDA-MB-231 21.5 µM | NCI-H226 14.8 µM | OVCAR-4 13.9 µM | RXF 393 19.2 µM | SF-268 20.1 µM | SNB-75 24.3 µM | SW-620 25.1 µM | T47D 17.1 µM

Cc1ccc(O)c(C2=CC3=NNC(=O)C3C(c3cccc(Cl)c3)C2)c1 (stereo not given)
inactive: 786-0 52.1 µM | A498 61.9 µM | A549 52.5 µM | ACHN 30.5 µM | COLO 205 16 µM | DU-145 43.4 µM | EKVX 37.3 µM | HL-60 51.9 µM | HOP-92 24 µM | Hs-578T 36.3 µM | M14 52 µM | MDA-MB-231 34.9 µM | OVCAR-4 12.8 µM | RXF 393 2.56 µM | SF-268 30.5 µM | SNB-75 18.5 µM | SW-620 38 µM | T47D 28.1 µM

CCOC(=O)C1C(=O)CC1(C)C (stereo not given)
inactive: 786-0 > 10 µM | A498 > 10 µM | A549 > 10 µM | ACHN > 10 µM | COLO 205 > 10 µM | DU-145 > 10 µM | EKVX > 10 µM | HL-60 > 10 µM | HOP-92 > 10 µM | Hs-578T > 10 µM | M14 > 10 µM | MDA-MB-231 > 10 µM | NCI-H226 > 10 µM | OVCAR-4 > 10 µM | RXF 393 > 10 µM | SF-268 > 10 µM | SW-620 > 10 µM | T47D > 10 µM

O=c1oc2ccc([N+](=O)[O-])cc2c(Nc2ccc3c(c2)S(=O)(=O)c2ccccc2O3)c1[N+](=O)[O-]
inactive: 786-0 > 100 µM | A549 > 100 µM | ACHN > 100 µM | COLO 205 > 100 µM | DU-145 > 100 µM | EKVX > 100 µM | HL-60 > 100 µM | HOP-92 51.2 µM | Hs-578T 72.1 µM | M14 42.9 µM | MDA-MB-231 49.7 µM | NCI-H226 35.9 µM | OVCAR-4 > 100 µM | RXF 393 45.4 µM | SF-268 88.5 µM | SNB-75 73.6 µM | SW-620 97.7 µM | T47D > 100 µM

CCOC(=O)c1sc2nc(SC)nc(N3CCCCC3)c2c1N
inactive: 786-0 > 100 µM | A498 > 100 µM | A549 > 100 µM | ACHN > 100 µM | COLO 205 > 100 µM | DU-145 > 100 µM | HOP-92 > 100 µM | Hs-578T > 100 µM | M14 > 100 µM | MDA-MB-231 > 100 µM | NCI-H226 > 100 µM | OVCAR-4 > 100 µM | RXF 393 > 100 µM | SF-268 > 100 µM | SNB-75 > 100 µM | SW-620 > 100 µM | T47D > 100 µM

FC(F)(Sc1nc2ccccc2[nH]1)c1nc2ccccc2o1
inactive: 786-0 > 100 µM | A498 > 100 µM | A549 > 100 µM | ACHN > 100 µM | COLO 205 > 100 µM | DU-145 > 100 µM | HOP-92 > 100 µM | Hs-578T > 100 µM | M14 > 100 µM | MDA-MB-231 > 100 µM | NCI-H226 > 100 µM | OVCAR-4 > 100 µM | RXF 393 > 100 µM | SF-268 > 100 µM | SNB-75 > 100 µM | SW-620 > 100 µM | T47D > 100 µM

CCOC(=O)C(=C(SC)SC)c1nn2c(=O)cc(C)nc2s1
inactive: 786-0 19.1 µM | A549 49.5 µM | ACHN 18.4 µM | COLO 205 18.6 µM | DU-145 16.5 µM | EKVX 24.3 µM | HL-60 17.4 µM | HOP-92 16.9 µM | Hs-578T 43.9 µM | M14 15.9 µM | MDA-MB-231 27.9 µM | NCI-H226 21.4 µM | OVCAR-4 28.5 µM | RXF 393 22.6 µM | SF-268 22.1 µM | SNB-75 31.4 µM | SW-620 21 µM | T47D 17 µM

O=C(O)C(NCc1ccccc1)C(NCc1ccccc1)C(=O)O (stereo not given)
inactive: 786-0 > 100 µM | A498 > 100 µM | A549 > 100 µM | ACHN > 100 µM | COLO 205 > 100 µM | DU-145 > 100 µM | EKVX > 100 µM | HL-60 > 100 µM | HOP-92 > 100 µM | Hs-578T > 100 µM | M14 > 100 µM | MDA-MB-231 > 100 µM | NCI-H226 > 100 µM | OVCAR-4 > 100 µM | SF-268 > 100 µM | SNB-75 > 100 µM | SW-620 > 100 µM | T47D > 100 µM

CC1(/C=C/CCSc2ccccc2)CC(=O)C2CC1C2(C)C (stereo not given)
inactive: 786-0 20.2 µM | A498 44.7 µM | A549 14.8 µM | ACHN 19 µM | COLO 205 30 µM | DU-145 44.3 µM | EKVX 22.1 µM | HOP-92 17.9 µM | Hs-578T 22.9 µM | M14 23.8 µM | MDA-MB-231 37.4 µM | NCI-H226 24.8 µM | OVCAR-4 38.5 µM | RXF 393 29.3 µM | SF-268 28.5 µM | SNB-75 11.2 µM | SW-620 32.5 µM | T47D 11.2 µM

Cn1c2ccccc2c(=O)c2c(O)cc3c(c21)C=CC1(CCCCC1)O3
inactive: 786-0 9.95 µM | A498 > 10 µM | A549 > 10 µM | ACHN > 10 µM | COLO 205 > 10 µM | DU-145 > 10 µM | EKVX 8.41 µM | HOP-92 > 10 µM | Hs-578T 9.06 µM | M14 > 10 µM | MDA-MB-231 > 10 µM | NCI-H226 5.89 µM | OVCAR-4 > 10 µM | RXF 393 > 10 µM | SF-268 > 10 µM | SNB-75 > 10 µM | SW-620 > 10 µM | T47D > 10 µM
